Test results from patent publication US12077503B2, “Substituted cyclic amides and their use as herbicides” (FMC CORPORATION, priority 2015, dated 2024).

Experiments:
Format in all cases: in vivo
[1] = system: barnyardgrass (Echinochloa crus-galli); test: Test G Pre-Emergence Protocol; conditions: Echinochloa crus-galli, pre-emergence, 312 h, evaluated after 13 days; for pest or weed control at 15.625 g/ha: 15.625 g ai/ha; for pest or weed control at 15.625 g/ha / pest or weed control at 250 g/ha: read-out: Barnyardgrass damage rating (100=total damage to plant; 0=no damage to plant); for pest or weed control at 62.5 g/ha: 62.5 g ai/ha, 100=total damage to plant, 0=no damage to plant, read-out: Barnyardgrass damage rating; for pest or weed control at 250 g/ha: 250 g ai/ha
In short: (§1)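 Herbicidal effect was rated 13 days post-application on a scale where 100 equals total damage. Spraying took place the day after sowing, using 15.625, 62.5 or 250 g/ha of compound in a 50:50 acetone/water solution with 0.5% Tween 20.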

corn (Zea mays) [2] = test: Test G Pre-Emergence Protocol; conditions: Zea mays, pre-emergence, 312 h, evaluated after 13 days; for plant injury at 15.625 g/ha: 15.625 g ai/ha; for plant injury at 15.625 g/ha / plant injury at 250 g/ha: read-out: Corn damage rating (100=total damage to plant; 0=no damage to plant); for plant injury at 62.5 g/ha: 62.5 g ai/ha, 100=total damage to plant, 0=no damage to plant, read-out: Corn damage rating; for plant injury at 250 g/ha: 250 g ai/ha
In short: as §1

[3] = system: giant foxtail (Setaria faberi); test: Test G Pre-Emergence Protocol; conditions: Setaria faberi, pre-emergence, 312 h, evaluated after 13 days; for pest or weed control at 15.625 g/ha: 15.625 g ai/ha; for pest or weed control at 15.625 g/ha / pest or weed control at 250 g/ha: read-out: Foxtail, Giant damage rating (100=total damage to plant; 0=no damage to plant); for pest or weed control at 62.5 g/ha: 62.5 g ai/ha, 100=total damage to plant, 0=no damage to plant, read-out: Foxtail, Giant damage rating; for pest or weed control at 250 g/ha: 250 g ai/ha
In short: as §1

[4] = system: redroot pigweed (Amaranthus retroflexus); test: Test G Pre-Emergence Protocol; conditions: Amaranthus retroflexus, pre-emergence, 312 h, evaluated after 13 days; for pest or weed control at 15.625 g/ha: 15.625 g ai/ha; for pest or weed control at 15.625 g/ha / pest or weed control at 250 g/ha: read-out: Pigweed, Redroot damage rating (100=total damage to plant; 0=no damage to plant); for pest or weed control at 62.5 g/ha: 62.5 g ai/ha, 100=total damage to plant, 0=no damage to plant, read-out: Pigweed, Redroot damage rating; for pest or weed control at 250 g/ha: 250 g ai/ha
In short: as §1

[5] = system: velvetleaf (Abutilon theophrasti); test: Test G Pre-Emergence Protocol; conditions: Abutilon theophrasti, pre-emergence, 312 h, evaluated after 13 days; for pest or weed control at 15.625 g/ha: 15.625 g ai/ha; for pest or weed control at 15.625 g/ha / pest or weed control at 250 g/ha: read-out: Velvetleaf damage rating (100=total damage to plant; 0=no damage to plant); for pest or weed control at 62.5 g/ha: 62.5 g ai/ha, 100=total damage to plant, 0=no damage to plant, read-out: Velvetleaf damage rating; for pest or weed control at 250 g/ha: 250 g ai/ha
In short: as §1

[6] = system: ivy-leaved morning glory (Ipomoea hederacea); test: Test G Pre-Emergence Protocol; conditions: Ipomoea, pre-emergence, 312 h, evaluated after 13 days; for pest or weed control at 15.625 g/ha: 15.625 g ai/ha; for pest or weed control at 15.625 g/ha / pest or weed control at 250 g/ha: read-out: Morningglory, Ivy-leaved damage rating (100=total damage to plant; 0=no damage to plant); for pest or weed control at 62.5 g/ha: 62.5 g ai/ha, 100=total damage to plant, 0=no damage to plant, read-out: Morningglory, Ivy-leaved damage rating; for pest or weed control at 250 g/ha: 250 g ai/ha
In short: as §1

[7] = system: barnyardgrass (Echinochloa crus-galli); test: Test G Post-Emergence Protocol; conditions: Echinochloa crus-galli, post-emergence, 312 h, read-out: Barnyardgrass damage rating; for pest or weed control at 15.625 g/ha: 15.625 g ai/ha, evaluated after 13 days (100=total damage to plant; 0=no damage to plant); for pest or weed control at 62.5 g/ha: 62.5 g ai/ha; for pest or weed control at 62.5 g/ha / pest or weed control at 250 g/ha: evaluated after 13 days, 100=total damage to plant, 0=no damage to plant; for pest or weed control at 250 g/ha: 250 g ai/ha
In short: (§2)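 Pot-grown seedlings, 8 days old, raised in a glasshouse at 24/16 °C day/night with 14 h light and 65% humidity, were sprayed post-emergence with test compound in acetone/water (50:50) plus 0.5% Tween 20 at 15.625, 62.5 or 250 g/ha. Damage was scored visually 13 days later on a 0–100 scale (100 = total damage).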

corn (Zea mays) [8] = test: Test G Post-Emergence Protocol; conditions: Zea mays, post-emergence, 312 h, read-out: Corn damage rating; for plant injury at 15.625 g/ha: 15.625 g ai/ha, evaluated after 13 days (100=total damage to plant; 0=no damage to plant); for plant injury at 62.5 g/ha: 62.5 g ai/ha; for plant injury at 62.5 g/ha / plant injury at 250 g/ha: evaluated after 13 days, 100=total damage to plant, 0=no damage to plant; for plant injury at 250 g/ha: 250 g ai/ha
In short: as §2

[9] = system: giant foxtail (Setaria faberi); test: Test G Post-Emergence Protocol; conditions: Setaria faberi, post-emergence, 312 h, read-out: Foxtail, Giant damage rating; for pest or weed control at 15.625 g/ha: 15.625 g ai/ha, evaluated after 13 days (100=total damage to plant; 0=no damage to plant); for pest or weed control at 62.5 g/ha: 62.5 g ai/ha; for pest or weed control at 62.5 g/ha / pest or weed control at 250 g/ha: evaluated after 13 days, 100=total damage to plant, 0=no damage to plant; for pest or weed control at 250 g/ha: 250 g ai/ha
In short: as §2

[10] = system: redroot pigweed (Amaranthus retroflexus); test: Test G Post-Emergence Protocol; conditions: Amaranthus retroflexus, post-emergence, 312 h, read-out: Pigweed, Redroot damage rating; for pest or weed control at 15.625 g/ha: 15.625 g ai/ha, evaluated after 13 days (100=total damage to plant; 0=no damage to plant); for pest or weed control at 62.5 g/ha: 62.5 g ai/ha; for pest or weed control at 62.5 g/ha / pest or weed control at 250 g/ha: evaluated after 13 days, 100=total damage to plant, 0=no damage to plant; for pest or weed control at 250 g/ha: 250 g ai/ha
In short: as §2

[11] = system: velvetleaf (Abutilon theophrasti); test: Test G Post-Emergence Protocol; conditions: Abutilon theophrasti, post-emergence, 312 h, read-out: Velvetleaf damage rating; for pest or weed control at 15.625 g/ha: 15.625 g ai/ha, evaluated after 13 days (100=total damage to plant; 0=no damage to plant); for pest or weed control at 62.5 g/ha: 62.5 g ai/ha; for pest or weed control at 62.5 g/ha / pest or weed control at 250 g/ha: evaluated after 13 days, 100=total damage to plant, 0=no damage to plant; for pest or weed control at 250 g/ha: 250 g ai/ha
In short: as §2

[12] = system: ivy-leaved morning glory (Ipomoea hederacea); test: Test G Post-Emergence Protocol; conditions: Ipomoea, post-emergence, 312 h, read-out: Morningglory, Ivy-leaved damage rating; for pest or weed control at 15.625 g/ha: 15.625 g ai/ha, evaluated after 13 days (100=total damage to plant; 0=no damage to plant); for pest or weed control at 62.5 g/ha: 62.5 g ai/ha; for pest or weed control at 62.5 g/ha / pest or weed control at 250 g/ha: evaluated after 13 days, 100=total damage to plant, 0=no damage to plant; for pest or weed control at 250 g/ha: 250 g ai/ha
In short: as §2

| SMILES | pest or weed control at 15.625 g/ha [1] | pest or weed control at 62.5 g/ha [1] | pest or weed control at 250 g/ha [1] | plant injury at 15.625 g/ha (corn (Zea mays) [2]) | plant injury at 62.5 g/ha (corn (Zea mays) [2]) | plant injury at 250 g/ha (corn (Zea mays) [2]) | pest or weed control at 15.625 g/ha [3] | pest or weed control at 62.5 g/ha [3] | pest or weed control at 250 g/ha [3] | pest or weed control at 15.625 g/ha [4] | pest or weed control at 62.5 g/ha [4] | pest or weed control at 250 g/ha [4] | pest or weed control at 15.625 g/ha [5] | pest or weed control at 62.5 g/ha [5] | pest or weed control at 250 g/ha [5] | pest or weed control at 15.625 g/ha [6] | pest or weed control at 62.5 g/ha [6] | pest or weed control at 250 g/ha [6] | pest or weed control at 15.625 g/ha [7] | pest or weed control at 62.5 g/ha [7] | also measured |
| --- | --- | --- | --- | --- | --- | --- | --- | --- | --- | --- | --- | --- | --- | --- | --- | --- | --- | --- | --- | --- | --- |
| CN1C[C@H](c2cccc(C(F)(F)F)c2)[C@@H](C(=O)Nc2cc(O)ccc2F)C1=O (racemic) [Compound 1807] | 0% | 0% | 0% | 0% | 0% | 0% | 0% | 0% | 0% | 0% | 0% | 0% | 0% | 0% | 0% | 0% | 0% | 0% | 0% | 0% | pest or weed control at 250 g/ha [7]: 0%; plant injury at 15.625 g/ha (corn (Zea mays) [8]): 0%; plant injury at 62.5 g/ha (corn (Zea mays) [8]): 0%; plant injury at 250 g/ha (corn (Zea mays) [8]): 0%; pest or weed control at 15.625 g/ha [9]: 0%; pest or weed control at 62.5 g/ha [9]: 0%; pest or weed control at 250 g/ha [9]: 0%; pest or weed control at 15.625 g/ha [10]: 0%; pest or weed control at 62.5 g/ha [10]: 0%; pest or weed control at 250 g/ha [10]: 0%; pest or weed control at 15.625 g/ha [11]: 0%; pest or weed control at 62.5 g/ha [11]: 0%; pest or weed control at 250 g/ha [11]: 0%; pest or weed control at 15.625 g/ha [12]: 0%; pest or weed control at 62.5 g/ha [12]: 0%; pest or weed control at 250 g/ha [12]: 0% |
| CN1C[C@H](c2cccc(C(F)(F)F)c2)[C@@H](C(=O)Nc2c(O)cccc2F)C1=O (racemic) [Compound 1808] | 0% | 0% | 40% | 0% | 0% | 0% | 0% | 20% | 70% | 0% | 0% | 20% | 0% | 0% | 10% | 0% | 0% | 10% | 0% | 20% | pest or weed control at 250 g/ha [7]: 60%; plant injury at 15.625 g/ha (corn (Zea mays) [8]): 0%; plant injury at 62.5 g/ha (corn (Zea mays) [8]): 0%; plant injury at 250 g/ha (corn (Zea mays) [8]): 0%; pest or weed control at 15.625 g/ha [9]: 0%; pest or weed control at 62.5 g/ha [9]: 30%; pest or weed control at 250 g/ha [9]: 60%; pest or weed control at 15.625 g/ha [10]: 0%; pest or weed control at 62.5 g/ha [10]: 0%; pest or weed control at 250 g/ha [10]: 0%; pest or weed control at 15.625 g/ha [11]: 0%; pest or weed control at 62.5 g/ha [11]: 0%; pest or weed control at 250 g/ha [11]: 0%; pest or weed control at 15.625 g/ha [12]: 0%; pest or weed control at 62.5 g/ha [12]: 0%; pest or weed control at 250 g/ha [12]: 0% |
